{"source": "ChEMBL document CHEMBL3885881", "about": "“DrugMatrix”", "key": {"Rattus norvegicus [1]": {"species_on_record": "Rattus norvegicus", "test": "DrugMatrix - Regimen: Daily Repeat", "format": "toxicity, organism-based, Sprague-Dawley", "parameters": "regimen Daily Repeat, gender Male, age 6-8 weeks", "conditions": "in vivo, po, 0 mg/kg, route oral GAVAGE, dose level Control, vehicle .5 % CMC"}, "Rattus norvegicus [2]": {"species_on_record": "Rattus norvegicus", "format": "toxicity, organism-based, Sprague-Dawley", "conditions": "in vivo, po, 0 mg/kg, 24 h, vehicle control, route oral GAVAGE, dose level Control, time 1 day, vehicle .5 % CMC", "description": "DrugMatrix - Regimen: Single"}, "[3]": {"conditions": "[…], tissue Plasma, time 14 day"}}}
{"smiles": "ClC(Br)Br", "note": "[DIBROMOCHLOROMETHANE]", "values": [{"measurement": "URIC ACID", "setting": "Rattus norvegicus [1]; 120 h, tissue Plasma, time 5 day", "result": 1, "unit": "mg/dL"}, {"measurement": "ABSOLUTE BASOPHIL", "setting": "Rattus norvegicus [1]; […], tissue Blood, time 14 day", "result": 0, "unit": "CELLS/uL"}, {"measurement": "ABSOLUTE EOSINOPHIL", "setting": "Rattus norvegicus [1]; […], tissue Blood, time 14 day", "result": 117.17, "unit": "CELLS/uL"}, {"measurement": "ABSOLUTE LYMPHOCYTE", "setting": "Rattus norvegicus [1]; […], tissue Blood, time 14 day", "result": 13562, "unit": "CELLS/uL"}, {"measurement": "ABSOLUTE MONOCYTE", "setting": "Rattus norvegicus [1]; […], tissue Blood, time 14 day", "result": 534.83, "unit": "CELLS/uL"}, {"measurement": "ABSOLUTE SEGMENTED NEUTROPHIL", "setting": "Rattus norvegicus [1]; […], tissue Blood, time 14 day", "result": 2486, "unit": "CELLS/uL"}, {"measurement": "BASOPHIL", "setting": "Rattus norvegicus [1]; […], tissue Blood, time 14 day", "result": 0, "unit": "%"}, {"measurement": "EOSINOPHIL", "setting": "Rattus norvegicus [1]; […], tissue Blood, time 14 day", "result": 0.83, "unit": "%"}, {"measurement": "ERYTHROCYTE COUNT", "setting": "Rattus norvegicus [1]; […], tissue Blood, time 14 day", "result": 6.14, "unit": "x10E6/uL"}, {"measurement": "HEMATOCRIT", "setting": "Rattus norvegicus [1]; […], tissue Blood, time 14 day", "result": 36.87, "unit": "%"}, {"measurement": "HEMOGLOBIN", "setting": "Rattus norvegicus [1]; […], tissue Blood, time 14 day", "result": 13.87, "unit": "G/DL"}, {"measurement": "LEUKOCYTE COUNT", "setting": "Rattus norvegicus [1]; […], tissue Blood, time 14 day", "result": 16.7, "unit": "x10E3/uL"}, {"measurement": "LYMPHOCYTE", "setting": "Rattus norvegicus [1]; […], tissue Blood, time 14 day", "result": 81, "unit": "%"}, {"measurement": "MEAN CORPUSCULAR HEMOGLOBIN", "setting": "Rattus norvegicus [1]; […], tissue Blood, time 14 day", "result": 22.63, "unit": "pg"}, {"measurement": "MEAN CORPUSCULAR HEMOGLOBIN CONCENTRATION", "setting": "Rattus norvegicus [1]; […], tissue Blood, time 14 day", "result": 37.62, "unit": "G/DL"}, {"measurement": "MEAN CORPUSCULAR VOLUME", "setting": "Rattus norvegicus [1]; […], tissue Blood, time 14 day", "result": 60.15, "unit": "fL"}, {"measurement": "MONOCYTE", "setting": "Rattus norvegicus [1]; […], tissue Blood, time 14 day", "result": 3.17, "unit": "%"}, {"measurement": "NEUTROPHIL", "setting": "Rattus norvegicus [1]; […], tissue Blood, time 14 day", "result": 15, "unit": "%"}, {"measurement": "NUCLEATED RED BLOOD CELLS", "setting": "Rattus norvegicus [1]; […], tissue Blood, time 14 day", "result": "0 /100WBC"}, {"measurement": "PLATELET COUNT", "setting": "Rattus norvegicus [1]; […], tissue Blood, time 14 day", "result": 974.83, "unit": "x10E3/uL"}, {"measurement": "ALANINE AMINOTRANSFERASE", "setting": "Rattus norvegicus [1]; [3]", "result": 52.33, "unit": "u/L"}, {"measurement": "ALBUMIN", "setting": "Rattus norvegicus [1]; [3]", "result": 4.48, "unit": "G/DL"}, {"measurement": "ALKALINE PHOSPHATASE", "setting": "Rattus norvegicus [1]; [3]", "result": 346.17, "unit": "u/L"}, {"measurement": "ASPARTATE AMINOTRANSFERASE", "setting": "Rattus norvegicus [1]; [3]", "result": 81, "unit": "u/L"}, {"measurement": "BLOOD UREA NITROGEN", "setting": "Rattus norvegicus [1]; [3]", "result": 15.67, "unit": "mg/dL"}, {"measurement": "CARBON DIOXIDE", "setting": "Rattus norvegicus [1]; [3]", "result": 34.33, "unit": "mmol/L"}, {"measurement": "CHLORIDE", "setting": "Rattus norvegicus [1]; [3]", "result": 100.17, "unit": "MEQ/L"}, {"measurement": "CHOLESTEROL", "setting": "Rattus norvegicus [1]; [3]", "result": 70.83, "unit": "mg/dL"}, {"measurement": "CREATININE", "setting": "Rattus norvegicus [1]; [3]", "result": 0.22, "unit": "mg/dL"}, {"measurement": "GLUCOSE", "setting": "Rattus norvegicus [1]; [3]", "result": 141.17, "unit": "mg/dL"}, {"measurement": "LACTATE DEHYDROGENASE", "setting": "Rattus norvegicus [1]; [3]", "result": 121.33, "unit": "u/L"}, {"measurement": "LIPASE", "setting": "Rattus norvegicus [1]; [3]", "result": 8.33, "unit": "u/L"}, {"measurement": "PHOSPHORUS", "setting": "Rattus norvegicus [1]; [3]", "result": 9.97, "unit": "mg/dL"}, {"measurement": "POTASSIUM", "setting": "Rattus norvegicus [1]; [3]", "result": 6.4, "unit": "MEQ/L"}, {"measurement": "SODIUM", "setting": "Rattus norvegicus [1]; [3]", "result": 143.72, "unit": "MEQ/L"}, {"measurement": "TOTAL BILIRUBIN", "setting": "Rattus norvegicus [1]; [3]", "result": 0.22, "unit": "mg/dL"}, {"measurement": "TOTAL PROTEIN", "setting": "Rattus norvegicus [1]; [3]", "result": 6.45, "unit": "G/DL"}, {"measurement": "URIC ACID", "setting": "Rattus norvegicus [1]; [3]", "result": 1.25, "unit": "mg/dL"}, {"measurement": "ABSOLUTE EOSINOPHIL", "setting": "Rattus norvegicus [2]; tissue Blood", "result": 150, "unit": "CELLS/uL"}, {"measurement": "ABSOLUTE LYMPHOCYTE", "setting": "Rattus norvegicus [2]; tissue Blood", "result": 13279.83, "unit": "CELLS/uL"}, {"measurement": "ABSOLUTE MONOCYTE", "setting": "Rattus norvegicus [2]; tissue Blood", "result": 654.5, "unit": "CELLS/uL"}, {"measurement": "ABSOLUTE SEGMENTED NEUTROPHIL", "setting": "Rattus norvegicus [2]; tissue Blood", "result": 1565.67, "unit": "CELLS/uL"}, {"measurement": "BASOPHIL", "setting": "Rattus norvegicus [2]; tissue Blood", "result": 0, "unit": "%"}, {"measurement": "EOSINOPHIL", "setting": "Rattus norvegicus [2]; tissue Blood", "result": 1, "unit": "%"}, {"measurement": "ERYTHROCYTE COUNT", "setting": "Rattus norvegicus [2]; tissue Blood", "result": 5.36, "unit": "x10E6/uL"}, {"measurement": "HEMATOCRIT", "setting": "Rattus norvegicus [2]; tissue Blood", "result": 33.37, "unit": "%"}, {"measurement": "HEMOGLOBIN", "setting": "Rattus norvegicus [2]; tissue Blood", "result": 12.52, "unit": "G/DL"}, {"measurement": "LEUKOCYTE COUNT", "setting": "Rattus norvegicus [2]; tissue Blood", "result": 15.65, "unit": "x10E3/uL"}, {"measurement": "LYMPHOCYTE", "setting": "Rattus norvegicus [2]; tissue Blood", "result": 84.83, "unit": "%"}, {"measurement": "MEAN CORPUSCULAR HEMOGLOBIN", "setting": "Rattus norvegicus [2]; tissue Blood", "result": 23.4, "unit": "pg"}, {"measurement": "MEAN CORPUSCULAR HEMOGLOBIN CONCENTRATION", "setting": "Rattus norvegicus [2]; tissue Blood", "result": 37.52, "unit": "G/DL"}, {"measurement": "MEAN CORPUSCULAR VOLUME", "setting": "Rattus norvegicus [2]; tissue Blood", "result": 62.32, "unit": "fL"}, {"measurement": "MONOCYTE", "setting": "Rattus norvegicus [2]; tissue Blood", "result": 4.17, "unit": "%"}, {"measurement": "NEUTROPHIL", "setting": "Rattus norvegicus [2]; tissue Blood", "result": 10, "unit": "%"}, {"measurement": "NUCLEATED RED BLOOD CELLS", "setting": "Rattus norvegicus [2]; tissue Blood", "result": "0 /100WBC"}, {"measurement": "PLATELET COUNT", "setting": "Rattus norvegicus [2]; tissue Blood", "result": 1020, "unit": "x10E3/uL"}, {"measurement": "ALANINE AMINOTRANSFERASE", "setting": "Rattus norvegicus [2]; tissue Plasma", "result": 49, "unit": "u/L"}, {"measurement": "ALBUMIN", "setting": "Rattus norvegicus [2]; tissue Plasma", "result": 4.47, "unit": "G/DL"}, {"measurement": "ALKALINE PHOSPHATASE", "setting": "Rattus norvegicus [2]; tissue Plasma", "result": 361.17, "unit": "u/L"}, {"measurement": "ASPARTATE AMINOTRANSFERASE", "setting": "Rattus norvegicus [2]; tissue Plasma", "result": 78.67, "unit": "u/L"}, {"measurement": "BLOOD UREA NITROGEN", "setting": "Rattus norvegicus [2]; tissue Plasma", "result": 13.17, "unit": "mg/dL"}, {"measurement": "CARBON DIOXIDE", "setting": "Rattus norvegicus [2]; tissue Plasma", "result": 29.67, "unit": "mmol/L"}, {"measurement": "CHLORIDE", "setting": "Rattus norvegicus [2]; tissue Plasma", "result": 100.83, "unit": "MEQ/L"}, {"measurement": "CHOLESTEROL", "setting": "Rattus norvegicus [2]; tissue Plasma", "result": 82.17, "unit": "mg/dL"}, {"measurement": "CREATININE", "setting": "Rattus norvegicus [2]; tissue Plasma", "result": 0.15, "unit": "mg/dL"}, {"measurement": "GLUCOSE", "setting": "Rattus norvegicus [2]; tissue Plasma", "result": 150.83, "unit": "mg/dL"}, {"measurement": "LACTATE DEHYDROGENASE", "setting": "Rattus norvegicus [2]; tissue Plasma", "result": 239.17, "unit": "u/L"}, {"measurement": "LIPASE", "setting": "Rattus norvegicus [2]; tissue Plasma", "result": 7.83, "unit": "u/L"}, {"measurement": "PHOSPHORUS", "setting": "Rattus norvegicus [2]; tissue Plasma", "result": 13.82, "unit": "mg/dL"}, {"measurement": "POTASSIUM", "setting": "Rattus norvegicus [2]; tissue Plasma", "result": 6.62, "unit": "MEQ/L"}, {"measurement": "SODIUM", "setting": "Rattus norvegicus [2]; tissue Plasma", "result": 144.25, "unit": "MEQ/L"}, {"measurement": "TOTAL BILIRUBIN", "setting": "Rattus norvegicus [2]; tissue Plasma", "result": 0.15, "unit": "mg/dL"}, {"measurement": "TOTAL PROTEIN", "setting": "Rattus norvegicus [2]; tissue Plasma", "result": 6.2, "unit": "G/DL"}, {"measurement": "URIC ACID", "setting": "Rattus norvegicus [2]; tissue Plasma", "result": 1.57, "unit": "mg/dL"}]}
